Measurements as given in patent US6303619A, “Meta-substituted acidic 8-phenylxanthine antagonists of A3 human adenosine receptors” (priority 1998, dated 2001).
“Also recorded” adds a separate entry of the source.

Assays:
[1] = system: asthmatics; conditions: cited from earlier work
[2] = system: sheep A3 adenosine receptor; conditions: cited from earlier work
[3] = target: T1, human A3 adenosine receptor (Homo sapiens, UniProt P0DMS8); test: inhibition of forskolin-stimulated cAMP accumulation in stably transfected CHO cells expressing the human A3 receptor; type: cell-based; conditions: stably transfected CHO cells, human A3
T1 construct: clone HS-21a contained the complete open reading frame corresponding to the human homolog of the rat A3 adenosine receptor; expressed in transfected cells; host or cells: CHO cells stably transfected with HS-21a cDNA
T1 sequence (P0DMS8 1-318): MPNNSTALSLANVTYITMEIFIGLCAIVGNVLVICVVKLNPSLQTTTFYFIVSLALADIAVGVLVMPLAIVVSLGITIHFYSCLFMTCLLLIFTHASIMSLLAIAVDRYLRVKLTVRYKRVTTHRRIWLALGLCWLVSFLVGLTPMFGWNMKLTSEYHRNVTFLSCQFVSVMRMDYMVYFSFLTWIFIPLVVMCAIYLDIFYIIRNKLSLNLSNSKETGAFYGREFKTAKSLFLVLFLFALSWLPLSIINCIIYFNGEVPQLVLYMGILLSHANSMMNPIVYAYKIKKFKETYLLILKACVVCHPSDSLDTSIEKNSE
Protocol: The human A3 adenosine receptor from a striatal cDNA library can be cloned using a probe derived from the homologous rat sequence.
cAMP Accumulation in Stable CHO Cell Lines
The changes in cAMP accumulation can alternatively be measured in stably transfected CHO cells expressing the human adenosine receptor subtypes. CHO cells are washed twice in phosphate buffered saline (PBS) and detached in 0.2% EDTA in PBS. The cells are pelleted at 800 rpm for 10 min and resuspended in KRH buffer (140 mM NaCl/5 mM KCl/2 mM CaCl2 /1.2 mM MgSO4 /1.2 mM KH2 PO4 /6 mM glucose/25 mM Hepes buffer, pH 7.4). The cells are washed once in KRH buffer and resuspended at 10^7 cells/mL. The cell suspension (100 μl) is mixed with 100 μl of KRH buffer containing 200 uM Ro 20-1724 and incubated at 37° C. for 10 minutes. Adenosine (10 uM) was added in 200 μl KRH buffer containing 200 uM Ro 20-1724 and incubated at 37° C. for 20 minutes. After the incubation, 400 μl of 0.5 mM NaOAc (pH 6.2) was added and the sample was boiled for 20 minutes. The supernatant was recovered by centrifugation for 15 minutes and stored at -70° C. cAMP levels were determined by radiommunoassay (RIANEN kit, DuPont/NEN) using the to acetylation protocol. The effect of antagonists on cAMP accumulation are measured by preincubation for 20 minutes before adding adenosine.

[4] = target: T1, human A3 adenosine receptor; test: 125I-ABA binding to membranes of stably transfected CHO cells expressing the human A3 adenosine receptor (HS-21a); conditions: for potency order of agonists / potency order of antagonists: order in words/symbols
Protocol: Membranes were prepared from transiently transfected COS7 cells […] after transfection or from G418-selected stably transfected CHO or HEK 293 cells. Cells were harvested in 1 mM EDTA in phosphate buffered saline and centrifuged at 2000×g for 10 minutes. The cell pellet was washed once with phosphate buffered saline. The cell pellet was resuspended in 2 mL of 5 mM Tris, pH 7.6/5mM MgCl2. Membranes were prepared from the cells by freeze-thaw lysis in which the suspension was frozen in a dry ice/ethanol bath and thawed at 25° C. twice. The suspension was homogenized after adding an additional 2 mL of 5 mM Tris, pH 7.6/5 mM MgCl2, in a glass dounce homogenizer with 20 strokes. The membranes were pelleted at 40,000×g at 4° C. for 20 minutes. The membrane pellet was resuspended at a protein concentration of 1-2 mg/mL in binding assay buffer, 50 mM Tris, pH 7.6/10 mM MgCl2. Protein concentration was determined by the method of Bradford ((1976) Anal. Biochem. 72: 248-250). […] Saturation binding of [^125 I]-N^6 -aminiobenizyladenosine (125I-ABA) or [^125 I]-N^6 -2-(4-amino-3-iodophenyl)ethyladenosine (APNEA) was performed on membranes prepared from pSVLA3 transfected COS7 cells. Membranes (100 μg) were incubated in the presence of 0.2 U/mL adenosine deaminase with increasing concentrations of ^125 I-ABA in the range of 0.1-30 nM for 120 minutes at 25° C. in a total volume of 500 μl. The binding assay was terminated by rapid filtration and three washes with ice-cold 50 mM Tris, pH 7.6/10 mM MgCl2 on a Skatron cell harvester equipped with a receptor binding flitermat (SKATRON INSTRUMENTS, INC). Non-specific binding was determined on non-transfected cells. Bound radioactivity was measured by scintillation counting in Ready Safe Scintillation Cocktail (BECKMAN).
The 1.7 kb HS-21a cDNA (A3) was subcloned as a SalI-BamHl fragment into the expression vector pCMV5 (Mumby, S. M., Heukeroth, R. O., Gordon, J. I. and Gilman, A. G. (1990) Proc. Natl. Acad. Sci. USA 87, 728-732.) creating the vector pCMV5-A3. CHO or HEK 293 cells stably expressing the human HS-21 a cDNA were prepared by co-transfection of 15 μg pCMV5-A3 and 1 μg pWLneo (Stratagene) using the calcium phosphate method. Stable cell lines were also generated using EBV based mammalian expression vectors, pREP (INVITROGEN). Neomycin resistant colonies were selected in 1 mg/mL G418 (GIBCO). Stable colonies were screened for expression of HS-21a by ^125 I-ABA binding.
Membranes were prepared from stable CHO cell lines in 10 mM Hepes, pH 7.4 containing 0.1 mM benzamidine and 0.1 mM PMSF as described (Mahan, L. C. et al., (1991) Mol. Pharinacol. 40, 1-7). Pellets were resuspended in 5 mM Hepes, pH 7.4/5 mM MgCl2 /0.1 mM benzarnidine/0.1 mM PMSF at a protein concentration of 1-2 mg/mL and were incubated with adenosine deaminase (Boehringer Mannheim), 2 U/mL at 37° C. for 20 minutes. Saturation binding of ^125 I-ABA was carried out on 50 μg of membranes for 120 minutes at 25° C. in a total volume of 100 μl. The assay was terminated by rapid filtration and three washes with ice-cold binding buffer on a Skatron harvester equipped with a receptor binding filtermat (Skatron Instruments, Inc.). The specific activity of ^125 I-ABA, initially 2,200 Ci/mmol, was reduced to 100 Ci/mmol with nonradioactive I-ABA for saturation analysis. Nonspecific binding was measured in the presence of 1 uM I-ABA. The KD and Bmax values were calculated by the EBDA program (McPherson, G. A. (1983) Computer Programs for Biomedicine 17, 107-114). Competition binding of agonists and antagonists was determined with ^125 I-ABA (0.17-2.0 nM, 2000 Ci/mmol). […] Binding data were analyzed and competition curves were constructed by use of the nonlinear regression curve fitting program Graph PAD InPlot, Version 3.0 (Graph Pad Software, San Diego).

[5] = system: rat A3 adenosine receptor; conditions: cited from earlier work
[6] = system: myocardial ischemic injury; conditions: inhibitor of mast cell degranulation; cited from earlier work
[7] = system: rat A3 adenosine receptor; conditions: cited from earlier work; remark: listed apart in the source
[8] = system: A3 adenosine receptor; conditions: animal model; Jin et al. 1997; cited from earlier work
[9] = system: receptor exhibiting an agonist pharmacological profile thought to be characteristic of the rat A3 subtype; conditions: angiotensin II-supported pithed rat; cited from earlier work
[10] = system: A2B adenosine receptor; conditions: cited from earlier work
[11] = system: A1 adenosine receptor; conditions: cited from earlier work
[12] = system: sheep A3 adenosine receptor; conditions: cited from earlier work; remark: listed apart in the source
[13] = system: A2A adenosine receptor; conditions: cited from earlier work
[14] = target: T1, human A3 adenosine receptor; conditions: cited from earlier work

Q: With Cn1c(=O)c2[nH]cnc2n(C)c1=O [theophylline] as the compound, how does the “antagonism of adenosine-induced bronchoconstriction” value [1] read?
A: The value was “antagonized”.

Q: For OC[C@H]1O[C@@H](n2cnc3c(NC4CCCC4)ncnc32)[C@H](O)[C@@H]1O [CPA, N^6 -cyclopentyladenosine], which agonist affinity order [2] is on record?
A: The agonist affinity order was “I-ABA>APNEA>NECA≥R-PIA>>CPA”.

Q: What about the “inhibition of forskolin-stimulated cAMP accumulation” value [3] of the same compound?
A: Its value is 30-40%.

Q: And the Ki ([4]; competition with 125I-ABA (FIG. 3a), read-out: Ki, agonists)?
A: Its Ki is 89 nM.

Q: And the “potency order of agonists” value ([4]; human A3)?
A: Its value is “N-ethylcarboxamidoadenosine (NECA)≥R-phenylisopropyladenosine(R-PIA)>N^6 -cyclopentyladenosine (CPA)>S-p-benylisopropyladenosine (S-PIA); also recorded: NECA>R-PIA>CPA>S-PLA”.

Q: For CCCn1c(=O)c2[nH]c(-c3ccc(C=CC(=O)O)cc3)nc2n(CCC)c1=O [BW-A1433, 1,3-dipropyl-8-(4-acrylate) phenylxanthine], which “potency order of antagonists” value ([4]; human A3) is on record?
A: The value was “I-ABOPX>1,3-dipropyl-8-(4-acrylate) phenylxanthine (BW-A1433)≥xanthine amino cogener (XAC)>>1,3-dipropyl-8-cyclopentylxanthine (DPCPX)”.

Q: With CCCn1c(=O)c2[nH]c(C3CCCC3)nc2n(CCC)c1=O [DPCPX, 1,3-dipropyl-8-cyclopentylxanthine] as the compound, how does the “binding to rat A3 receptor” value [5] read?
A: Its value is “not to bind”.

Q: And the “potency order of antagonists” value ([4]; human A3)?
A: Its value is “I-ABOPX>1,3-dipropyl-8-(4-acrylate) phenylxanthine (BW-A1433)≥xanthine amino cogener (XAC)>>1,3-dipropyl-8-cyclopentylxanthine (DPCPX)”.

Q: Which “A3 antagonist affinity in words” value ([4]; human A3) does the source give for CCCn1c(=O)c2[nH]c(-c3ccc(OCC(=O)O)cc3)nc2n(Cc2ccc(N)c(I)c2)c1=O [I-ABOPX] here?
A: The value was “highest affinity para-substituted antagonist yet reported for A3 adenosine receptors”.

Q: What about the “potency order of antagonists” value ([4]; human A3) of the same compound?
A: The value was “I-ABOPX>1,3-dipropyl-8-(4-acrylate) phenylxanthine (BW-A1433)≥xanthine amino cogener (XAC)>>1,3-dipropyl-8-cyclopentylxanthine (DPCPX)”.

Q: Which agonist affinity order [2] does the source give for Nc1ccc(CCNc2ncnc3c2ncn3[C@@H]2O[C@H](CO)[C@@H](O)[C@H]2O)cc1I [APNEA, N^6-2-(4-amino-3-iodophenyl)ethyladenosine] here?
A: The agonist affinity order was “I-ABA>APNEA>NECA≥R-PIA>>CPA”.

Q: Which “reduction of myocardial ischemic injury” value [6] does the source give for N#Cc1cc(NC(=O)C(=O)O)c(Cl)c(NC(=O)C(=O)O)c1 [lodoxamide] here?
A: The value was “reduces myocardial ischemic injury”.

Q: For C[C@@H](Cc1ccccc1)Nc1ncnc2c1ncn2[C@@H]1O[C@H](CO)[C@@H](O)[C@H]1O [S-PIA, (R,S)-N^6-phenyl-2-propyladenosine], which “inhibition of forskolin-stimulated cAMP accumulation” value [3] is on record?
A: Its value is 30-40%.

Q: And the “potency order of agonists” value ([4]; human A3)?
A: The value was “N-ethylcarboxamidoadenosine (NECA)≥R-phenylisopropyladenosine(R-PIA)>N^6 -cyclopentyladenosine (CPA)>S-p-benylisopropyladenosine (S-PIA); also recorded: NECA>R-PIA>CPA>S-PLA”.

Q: With CCNC(=O)[C@H]1O[C@@H](n2cnc3c(N)ncnc32)[C@H](O)[C@@H]1O [NECA, N-ethylcarboxamidoadenosine] as the compound, how does the agonist affinity order [2] read?
A: Its agonist affinity order is “I-ABA>APNEA>NECA≥R-PIA>>CPA”.

Q: And the “inhibition of forskolin-stimulated cAMP accumulation” value [3]?
A: The value was 30-40%.

Q: What about the “potency order for inhibition of cyclic AMP accumulation” value (shortened to “potency order for inhibition”) [7] of the same compound?
A: Its value is “NECA=R-PIA>CGS21680”.

Q: And the “prevention of specific binding of 125I-ABA” value ([4]; 400 uM NECA)?
A: Its value is “prevented”.

Q: What about the “potency order of agonists” value ([4]; human A3) of the same compound?
A: The value was “N-ethylcarboxamidoadenosine (NECA)≥R-phenylisopropyladenosine(R-PIA)>N^6 -cyclopentyladenosine (CPA)>S-p-benylisopropyladenosine (S-PIA); also recorded: NECA>R-PIA>CPA>S-PLA”.

Q: Which “binding to rat A3 receptor” value [5] does the source give for CCCn1c(=O)c2[nH]c(-c3ccc(OCC(=O)NCCN)cc3)nc2n(CCC)c1=O [XAC] here?
A: Its value is “not to bind”.

Q: With OC[C@H]1O[C@@H](n2cnc3c(O)ncnc32)[C@H](O)[C@@H]1O [inosine] as the compound, how does the “induction of mast cell degranulation” value [8] read?
A: Its value is “induce mast cell degranulation”.

Q: For Cn1c(=O)c2[nH]c(-c3ccc(S(=O)(=O)O)cc3)nc2n(C)c1=O [8-(para-sulfophenyl)theophylline], which “sensitivity of hypotension to blockade” value [9] is on record?
A: The value was “insensitive to blockade”.

Q: And the “action on A2B subtype” value [10]?
A: Its value is “broad action”.

Q: And the “action on A1 subtype” value [11]?
A: The value was “broad action”.

Q: What about the “blockade of sheep A3 receptor” value [12] of the same compound?
A: The value was “blocks”.

Q: What about the “action on A2A subtype” value [13] of the same compound?
A: Its value is “broad action”.

Q: And the “blockade of human A3 receptor” value [14]?
A: The value was “blocks”.

Q: With C[C@H](Cc1ccccc1)Nc1ncnc2c1ncn2[C@@H]1O[C@H](CO)[C@@H](O)[C@H]1O [R-PIA] as the compound, how does the agonist affinity order [2] read?
A: Its agonist affinity order is “I-ABA>APNEA>NECA≥R-PIA>>CPA”.

Q: And the “inhibition of forskolin-stimulated cAMP accumulation” value [3]?
A: The value was 30-40%.

Q: What about the “potency order for inhibition” value [7] of the same compound?
A: Its value is “NECA=R-PIA>CGS21680”.

Q: What about the “potency order of agonists” value ([4]; human A3) of the same compound?
A: Its value is “N-ethylcarboxamidoadenosine (NECA)≥R-phenylisopropyladenosine(R-PIA)>N^6 -cyclopentyladenosine (CPA)>S-p-benylisopropyladenosine (S-PIA); also recorded: NECA>R-PIA>CPA>S-PLA”.

Q: Which “potency order for inhibition” value [7] does the source give for CCNC(=O)[C@H]1O[C@@H](n2cnc3c(N)nc(NCCc4ccc(CCC(=O)O)cc4)nc32)[C@H](O)[C@@H]1O [CGS21680] here?
A: The value was “NECA=R-PIA>CGS21680”.

Q: With Nc1ccc(CCNc2ncnc3c2ncn3[C@@H]2O[C@H](CO)[C@@H](O)[C@H]2O)cc1[125I] [^125 I-APNEA, N^6-2-(4-amino-3^125 iodophenyl)ethyladenosine] as the compound, how does the “binding to rat A3 receptor” value [5] read?
A: Its value is “bind”.

Q: What about the “non-specific binding to CHO cell membranes” value ([4]; 125I-APNEA, preliminary experiments) of the same compound?
A: Its value is “high non-specific”.
